# Molecular target: Avi-humanTEAD4 217-434 / Cy5 labeled humanYAP 60-100 (Homo sapiens (Human), UniProt Q15561)
# Experiment: TR-FRET YAP-TEAD4 in-vitro biochemical assay
# Assay type: binding
# Settings: 1 nM Avi-humanTEAD4 217-434, 20 nM Cy5-humanYAP 60-100, 1 h room temperature
# Procedure: N-terminus Cy5 labeled humanYAP^60-100 (20 nM) was then added to this preparation. Compounds were dissolved at 10 mM in 100% DMSO and serial dilutions were made in 100% DMSO. The diluted compound solutions were incubated in white 384-well plates (Greiner Bio-One) for 1 h at room temperature with the above described mix. The final DMSO concentration present in the assay was 1%. […] The IC50 values were estimated by fitting the data by nonlinear fit regression (GraphPad Prism).
# Sequence of Avi-humanTEAD4 217-434 / Cy5 labeled humanYAP 60-100 (Q15561 217-434): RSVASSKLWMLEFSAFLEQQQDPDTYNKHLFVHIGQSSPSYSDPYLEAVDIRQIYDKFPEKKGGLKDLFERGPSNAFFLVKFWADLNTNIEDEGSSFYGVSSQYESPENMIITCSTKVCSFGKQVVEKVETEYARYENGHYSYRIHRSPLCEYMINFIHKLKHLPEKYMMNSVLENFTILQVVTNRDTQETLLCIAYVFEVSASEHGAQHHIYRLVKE
row,SMILES,IC50
1,"C[C@@H]1C[C@H](NC[C@@]2(c3ccccc3)Cc3c(cc(F)c(Cl)c3-c3c(C(N)=O)ccc(OCCO)c3F)O2)C[C@H](C)O1 (atropisomer, axis not shown) [Example 65a, 2-((2S,4S)-5-chloro-2-((((2R,4r,6S)-2,6-dimethyltetrahydro-2H-pyran-4-yl)amino)methyl)-6-fluoro-2-phenyl-2,3-dihydrobenzofuran-4-yl)-3-fluoro-4-(2-hydroxyethoxy)benzamide]",4 nM
2,"C[C@@H]1C[C@@H](NC[C@@]2(c3ccccc3)Cc3c(cc(F)c(Cl)c3-c3c(C(N)=O)ccc(OCCO)c3F)O2)C[C@H](C)O1 (atropisomer, axis not shown) [Example 65b, 2-((2S,4S)-5-chloro-2-((((2R,4s,6S)-2,6-dimethyltetrahydro-2H-pyran-4-yl)amino)methyl)-6-fluoro-2-phenyl-2,3-dihydrobenzofuran-4-yl)-3-fluoro-4-(2-hydroxyethoxy)benzamide]",455 nM
3,"COc1ncc(C(N)=O)c(-c2c(Cl)c(F)cc3c2C[C@@](CN[C@H]2CC[C@](C)(O)CC2)(c2ccccc2)O3)c1F (atropisomer, axis not shown) [Example 66a, 4-((2S,4S)-5-chloro-6-fluoro-2-((((trans)-4-hydroxy-4-methylcyclohexyl)amino)methyl)-2-phenyl-2,3-dihydrobenzofuran-4-yl)-5-fluoro-6-methoxynicotinamide]",2 nM
4,"COc1ncc(C(N)=O)c(-c2c(Cl)c(F)cc3c2C[C@@](CN[C@H]2CC[C@@](C)(O)CC2)(c2ccccc2)O3)c1F (atropisomer, axis not shown) [Example 66b, 4-((2S,4S)-5-chloro-6-fluoro-2-((((cis)-4-hydroxy-4-methylcyclohexyl)amino)methyl)-2-phenyl-2,3-dihydrobenzofuran-4-yl)-5-fluoro-6-methoxynicotinamide]",2 nM
5,"C[C@]1(O)CC[C@@H](NC[C@@]2(c3ccccc3)Cc3c(cc(F)c(Cl)c3-c3c(C(N)=O)ccc(OC[C@H]4CCCO4)c3F)O2)CC1 (atropisomer, axis not shown) [Example 67a, 2-((2S,4S)-5-chloro-6-fluoro-2-((((cis)-4-hydroxy-4-methylcyclohexyl)amino)methyl)-2-phenyl-2,3-dihydrobenzofuran-4-yl)-3-fluoro-4-(((R)-tetrahydrofuran-2-yl)methoxy)benzamide]",2 nM
6,"C[C@]1(O)CC[C@H](NC[C@@]2(c3ccccc3)Cc3c(cc(F)c(Cl)c3-c3c(C(N)=O)ccc(OC[C@H]4CCCO4)c3F)O2)CC1 (atropisomer, axis not shown) [Example 67b, 2-((2S,4S)-5-chloro-6-fluoro-2-((((trans)-4-hydroxy-4-methylcyclohexyl)amino)methyl)-2-phenyl-2,3-dihydrobenzofuran-4-yl)-3-fluoro-4-(((R)-tetrahydrofuran-2-yl)methoxy)benzamide]",3 nM
7,"CCc1ccc(C(N)=O)c(-c2c(Cl)c(F)cc3c2C[C@@](CN[C@H]2CC[C@](C)(O)CC2)(c2ccccc2)O3)c1F (atropisomer, axis not shown) [Example 68a, 2-((2S,4S)-5-chloro-6-fluoro-2-((((trans)-4-hydroxy-4-methylcyclohexyl)amino)methyl)-2-phenyl-2,3-dihydrobenzofuran-4-yl)-4-ethyl-3-fluorobenzamide]",10 nM
8,"CCc1ccc(C(N)=O)c(-c2c(Cl)c(F)cc3c2C[C@@](CN[C@H]2CC[C@@](C)(O)CC2)(c2ccccc2)O3)c1F (atropisomer, axis not shown) [Example 68b, 2-((2S,4S)-5-chloro-6-fluoro-2-((((cis)-4-hydroxy-4-methylcyclohexyl)amino)methyl)-2-phenyl-2,3-dihydrobenzofuran-4-yl)-4-ethyl-3-fluorobenzamide]",12 nM
9,"CC(=O)N1CCC(NC[C@@]2(c3ccccc3)Cc3c(cc(F)c(Cl)c3-c3c(C(N)=O)ccc(OC(F)F)c3F)O2)CC1 (atropisomer, axis not shown) [Example 70, 2-((2S,4S)-2-(((1-acetylpiperidin-4-yl)amino)methyl)-5-chloro-6-fluoro-2-phenyl-2,3-dihydrobenzofuran-4-yl)-4-(difluoromethoxy)-3-fluorobenzamide]",20 nM
10,"C[C@]1(O)CC[C@H](NC[C@@]2(c3ccccc3)Cc3c(cc(F)c(Cl)c3-c3c(C(N)=O)ccc(OCc4ncccn4)c3F)O2)CC1 (atropisomer, axis not shown) [Example 71a, 2-((2S,4S)-5-chloro-6-fluoro-2-((((trans)-4-hydroxy-4-methylcyclohexyl)amino)methyl)-2-phenyl-2,3-dihydrobenzofuran-4-yl)-3-fluoro-4-(pyrimidin-2-ylmethoxy)benzamide]",2 nM
11,"C[C@]1(O)CC[C@@H](NC[C@@]2(c3ccccc3)Cc3c(cc(F)c(Cl)c3-c3c(C(N)=O)ccc(OCc4ncccn4)c3F)O2)CC1 (atropisomer, axis not shown) [Example 71b, 2-((2S,4S)-5-chloro-6-fluoro-2-((((cis)-4-hydroxy-4-methylcyclohexyl)amino)methyl)-2-phenyl-2,3-dihydrobenzofuran-4-yl)-3-fluoro-4-(pyrimidin-2-ylmethoxy)benzamide]",1 nM
12,"CC(C)(C)NC[C@@]1(c2ccccc2)Cc2c(cc(F)c(Cl)c2-c2c(C(N)=O)ccc(OC(F)F)c2F)O1 (atropisomer, axis not shown) [Example 73, 2-((2S,4S)-2-((tert-butylamino)methyl)-5-chloro-6-fluoro-2-phenyl-2,3-dihydrobenzofuran-4-yl)-4-(difluoromethoxy)-3-fluorobenzamide]",14 nM
13,"C[C@@H](CO)NC[C@@]1(c2ccccc2)Cc2c(cc(F)c(Cl)c2-c2c(C(N)=O)ccc(OC(F)F)c2F)O1 (atropisomer, axis not shown) [Example 75, 2-((2S,4S)-5-chloro-6-fluoro-2-((((S)-1-hydroxypropan-2-yl)amino)methyl)-2-phenyl-2,3-dihydrobenzofuran-4-yl)-4-(difluoromethoxy)-3-fluorobenzamide]",38 nM
14,"CC1(NC[C@@]2(c3ccccc3)Cc3c(cc(F)c(Cl)c3-c3c(C(N)=O)ccc(OC(F)F)c3F)O2)CC1 (atropisomer, axis not shown) [Example 76, 2-((2S,4S)-5-chloro-6-fluoro-2-(((1-methylcyclopropyl)amino)methyl)-2-phenyl-2,3-dihydrobenzofuran-4-yl)-4-(difluoromethoxy)-3-fluorobenzamide]",50 nM
15,"COCCNC[C@@]1(c2ccccc2)Cc2c(cc(F)c(Cl)c2-c2c(C(N)=O)ccc(OC(F)F)c2F)O1 (atropisomer, axis not shown) [Example 77, 2-((2S,4S)-5-chloro-6-fluoro-2-(((2-methoxyethyl)amino)methyl)-2-phenyl-2,3-dihydrobenzofuran-4-yl)-4-(difluoromethoxy)-3-fluorobenzamide]",71 nM
16,"NC(=O)c1ccc(OC(F)F)c(F)c1-c1c(Cl)c(F)cc2c1C[C@@](CNCCN1CCCC1=O)(c1ccccc1)O2 (atropisomer, axis not shown) [Example 78, 2-((2S,4S)-5-chloro-6-fluoro-2-(((2-(2-oxopyrrolidin-1-yl)ethyl)amino)methyl)-2-phenyl-2,3-dihydrobenzofuran-4-yl)-4-(difluoromethoxy)-3-fluorobenzamide]",160 nM
17,"NC(=O)c1ccc(OC(F)F)c(F)c1-c1c(Cl)c(F)cc2c1C[C@@](CN[C@H]1CC[C@H](n3cnnn3)CC1)(c1ccccc1)O2 (atropisomer, axis not shown) [Example 79, 2-((2S,4S)-2-((((trans)-4-(1H-tetrazol-1-yl)cyclohexyl)amino)methyl)-5-chloro-6-fluoro-2-phenyl-2,3-dihydrobenzofuran-4-yl)-4-(difluoromethoxy)-3-fluorobenzamide]",11 nM
18,"NC(=O)c1ccc(OC(F)F)c(F)c1-c1c(Cl)c(F)cc2c1C[C@@](CN[C@H]1C[C@H](COC(F)F)C1)(c1ccccc1)O2 (atropisomer, axis not shown) [Example 80, 2-((2S,4S)-5-chloro-2-(((trans-3-((difluoromethoxy)methyl)cyclobutyl)amino)methyl)-6-fluoro-2-phenyl-2,3-dihydrobenzofuran-4-yl)-4-(difluoromethoxy)-3-fluorobenzamide]",14 nM
19,"NC(=O)c1ccc(OC(F)F)c(F)c1-c1c(Cl)c(F)cc2c1C[C@@](CN[C@H]1C[C@H](F)C1)(c1ccccc1)O2 (atropisomer, axis not shown) [Example 82, 2-((2S,4S)-5-chloro-6-fluoro-2-(((trans-3-fluorocyclobutyl)amino)methyl)-2-phenyl-2,3-dihydrobenzofuran-4-yl)-4-(difluoromethoxy)-3-fluorobenzamide]",119 nM
20,"C[C@]1(NC[C@@]2(c3ccccc3)Cc3c(cc(F)c(Cl)c3-c3c(C(N)=O)ccc(OC(F)F)c3F)O2)CC[C@H](O)CC1 (atropisomer, axis not shown) [Example 84, 2-((2S,4S)-5-chloro-6-fluoro-2-((((trans)-4-hydroxy-1-methylcyclohexyl)amino)methyl)-2-phenyl-2,3-dihydrobenzofuran-4-yl)-4-(difluoromethoxy)-3-fluorobenzamide]",41 nM
21,"NC[C@]1(c2ccccc2)Oc2ccc(Cl)c(-c3c(C(N)=O)ccc(OC(F)F)c3F)c2[C@@H]1O (atropisomer, axis not shown) [Example 87, 2-((2S,3S,4S)-2-(aminomethyl)-5-chloro-3-hydroxy-2-phenyl-2,3-dihydrobenzofuran-4-yl)-4-(difluoromethoxy)-3-fluorobenzamide]",30 nM
22,"COc1ccc(C(N)=O)c(-c2c(Cl)ccc3c2[C@H](O)[C@@](CN)(c2ccc[nH]c2=O)O3)c1F (atropisomer, axis not shown) [Example 92, 2-((2S,3S,4S)-2-(Aminomethyl)-5-chloro-3-hydroxy-2-(2-oxo-1,2-dihydropyridin-3-yl)-2,3-dihydrobenzofuran-4-yl)-3-fluoro-4-methoxybenzamide]",22 nM
